Reference: BigSolDB 2.1

O=Cc1ccc2c(c1)OCO2
solubility (mole fraction)
Settings	in acetone	in chloroform	in ethanol	in isopropanol	in water
273.15 K	0.0521	0.427	0.0056	0.0174	0.000118
278.15 K	0.0655	0.477	0.0143	0.0227	0.000153
283.15 K	0.0876	0.531	0.0396	0.0332	0.00022
288.15 K	0.118	0.598	0.0697	0.0461	0.000277
293.15 K	0.155	0.693	0.123	0.0753	0.000393
